Here are results for 57 compounds from US8697694B2, “Substituted pyridine and pyrimidine derivatives and their use in treating viral infections” (priority 2008, dated 2014).

Usually EC90 stands for the concentration at which the effect reaches the 90% level.

This test has as its system HCV replicon cells. In words: Cell-based HCV replicon assay (replicon RNA level by real time PCR, Taqman). The conditions noted are these: Hepatitis C virus, 72 h, HCV replicon cells, harvested on day 3, replicon RNA by real time PCR; calculated EC90 reported as range class; read-out: EC90 (μM) range. An outline of the steps: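 Readout: ΔCT between NS5B replicon RNA and GAPDH by real-time RT-PCR in lysates harvested on day 3, fitted sigmoidally; EC50 at ΔCT=1, EC90 at ΔCT=3.2. Compounds tested at ten 2-fold dilutions from 25 μM to 1 μM start, 10% FBS, 0.5% DMSO.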
In the case of `C[C@H](Nc1nc(Cl)c(-c2nc3ccccc3s2)c(N[C@@H]2C[C@H](CO)[C@@H](O)[C@H]2O)n1)c1ccccc1` [Example 440], the EC90 was 0.5 to 5 µM. As for `OC[C@H]1C[C@@H](Nc2nc(NCCc3ccccc3)nc(Cl)c2-c2nc3ccccc3s2)[C@H](O)[C@@H]1O` [Example 444], the EC90 is below 0.5 µM. Turning to `Cc1nc(NCCc2ccccc2)nc(N[C@@H]2C[C@H](CO)[C@@H](O)[C@H]2O)c1-c1nc2ccccc2s1` [Example 445], the EC90 is below 0.5 µM. With `CCCCCNc1nc(Cl)c(-c2cc3cc(CCC)nc(C)c3o2)c(N[C@@H]2C[C@H](CO)[C@@H](O)[C@H]2O)n1` [Example 446], the EC90 is below 0.5 µM.

Consider `OC[C@H]1C[C@@H](Nc2nc(NCC3CCOCC3)nc(Cl)c2-c2nc3ccccc3s2)[C@H](O)[C@@H]1O` [Example 447], for which the EC90 was below 0.5 µM. Next, `CCCCCNc1nc(C)c(-c2cc3cc(CCC)nc(C)c3o2)c(N[C@@H]2C[C@H](CO)[C@@H](O)[C@H]2O)n1` [Example 448]: below 0.5 µM. In the case of `Cc1nc(NCC2CCOCC2)nc(N[C@@H]2C[C@H](CO)[C@@H](O)[C@H]2O)c1-c1nc2ccccc2s1` [Example 449], the EC90 is below 0.5 µM.

For the compound `CCCCCNc1nc(Cl)c(-c2cc3cc(C)nc(C)c3o2)c(N[C@@H]2C[C@H](CO)[C@@H](O)[C@H]2O)n1` [Example 450], the EC90 is below 0.5 µM. As for `CCCCCNc1nc(Cl)c(-c2cc3cc(C)ncc3o2)c(N[C@@H]2C[C@H](CO)[C@@H](O)[C@H]2O)n1` [Example 451], the EC90 was below 0.5 µM. As to `CCCCCNc1nc(C)c(-c2cc3cc(C)nc(C)c3o2)c(N[C@@H]2C[C@H](CO)[C@@H](O)[C@H]2O)n1` [Example 452], the EC90 is below 0.5 µM. Next, `CCCCCNc1nc(C)c(-c2cc3cc(C)ncc3o2)c(N[C@@H]2C[C@H](CO)[C@@H](O)[C@H]2O)n1` [Example 453]: below 0.5 µM. In the case of `CCCCCCNc1nc(Cl)c(-c2nc3ccccc3s2)c(N[C@@H]2C[C@H](CO)[C@@H](O)[C@H]2O)n1` [Example 454], the EC90 was below 0.5 µM. In the case of `CCCCCCNc1nc(C)c(-c2nc3ccccc3s2)c(N[C@@H]2C[C@H](CO)[C@@H](O)[C@H]2O)n1` [Example 455], the concentration for an effect of 90% (EC90) was below 0.5 µM. With `Cc1cc2cc(-c3c(Cl)nc(NCC(F)(F)F)nc3N[C@@H]3C[C@H](CO)[C@@H](O)[C@H]3O)oc2c(C)n1` [Example 456], the 90% effect concentration (EC90) is below 0.5 µM.

On to `Cc1cc2cc(-c3c(C)nc(NCC(F)(F)F)nc3N[C@@H]3C[C@H](CO)[C@@H](O)[C@H]3O)oc2c(C)n1` [Example 457], for which the EC90 was below 0.5 µM. For the compound `Cc1cc2cc(-c3c(Cl)nc(NCC4CCOCC4)nc3N[C@@H]3C[C@H](CO)[C@@H](O)[C@H]3O)oc2c(C)n1` [Example 458], the EC90 was below 0.5 µM.

With `Cc1cc2cc(-c3c(Cl)nc(NCC4CCCCC4)nc3N[C@@H]3C[C@H](CO)[C@@H](O)[C@H]3O)oc2c(C)n1` [Example 460], the EC90 was below 0.5 µM. Turning to `Cc1cc2cc(-c3c(C)nc(NCC4CCCCC4)nc3N[C@@H]3C[C@H](CO)[C@@H](O)[C@H]3O)oc2c(C)n1` [Example 461], the EC90 is below 0.5 µM. As for `Cc1nc(NCc2ccccn2)nc(N[C@@H]2C[C@H](CO)[C@H]3OC(C)(C)O[C@H]32)c1-c1nc2ccccc2s1` [Example 462], the figure is 0.5 to 5 µM. Turning to `Cc1nc(NCc2cccnc2)nc(N[C@@H]2C[C@H](CO)[C@H]3OC(C)(C)O[C@H]32)c1-c1nc2ccccc2s1` [Example 463], the EC90 is below 0.5 µM. As for `Cc1nc(NCc2ccncc2)nc(N[C@@H]2C[C@H](CO)[C@H]3OC(C)(C)O[C@H]32)c1-c1nc2ccccc2s1` [Example 464], the figure is below 0.5 µM.

For the compound `Cc1nc(NCc2ccccn2)nc(N[C@@H]2C[C@H](CO)[C@@H](O)[C@H]2O)c1-c1nc2ccccc2s1` [Example 465], the EC90 is below 0.5 µM. As to `Cc1nc(NCc2cccnc2)nc(N[C@@H]2C[C@H](CO)[C@@H](O)[C@H]2O)c1-c1nc2ccccc2s1` [Example 466], the EC90 is below 0.5 µM. For `Cc1nc(NCc2cccn2C)nc(N[C@@H]2C[C@H](CO)[C@H]3OC(C)(C)O[C@H]32)c1-c1nc2ccccc2s1` [Example 468], the concentration for an effect of 90% (EC90) was below 0.5 µM. Take `Cc1nc(NCc2ccco2)nc(N[C@@H]2C[C@H](CO)[C@H]3OC(C)(C)O[C@H]32)c1-c1nc2ccccc2s1` [Example 469]: the 90% effect concentration (EC90) was below 0.5 µM. For `Cc1nc(NCc2ccco2)nc(N[C@@H]2C[C@H](CO)[C@@H](O)[C@H]2O)c1-c1nc2ccccc2s1` [Example 470], the EC90 was below 0.5 µM. Turning to `COC(C)(C)CNc1nc(C)c(-c2nc3ccccc3s2)c(N[C@@H]2C[C@H](CO)[C@H]3OC(C)(C)O[C@H]32)n1` [Example 471], the EC90 was below 0.5 µM. For `Cc1nc(NCc2nccs2)nc(N[C@@H]2C[C@H](CO)[C@H]3OC(C)(C)O[C@H]32)c1-c1nc2ccccc2s1` [Example 472], the EC90 was below 0.5 µM. With `COC(C)(C)CNc1nc(C)c(-c2nc3ccccc3s2)c(N[C@@H]2C[C@H](CO)[C@@H](O)[C@H]2O)n1` [Example 473], the EC90 is below 0.5 µM. In the case of `Cc1nc(NCc2nccs2)nc(N[C@@H]2C[C@H](CO)[C@@H](O)[C@H]2O)c1-c1nc2ccccc2s1` [Example 474], the EC90 is below 0.5 µM.

On to `Cc1nc(NCc2cc3ccccc3s2)nc(N[C@@H]2C[C@H](CO)[C@H]3OC(C)(C)O[C@H]32)c1-c1nc2ccccc2s1` [Example 475], for which the EC90 was 0.5 to 5 µM.

Regarding `Cc1ccsc1CNc1nc(C)c(-c2nc3ccccc3s2)c(N[C@@H]2C[C@H](CO)[C@H]3OC(C)(C)O[C@H]32)n1` [Example 476], the EC90 is below 0.5 µM. For the compound `Cc1csc(CNc2nc(C)c(-c3nc4ccccc4s3)c(N[C@@H]3C[C@H](CO)[C@H]4OC(C)(C)O[C@H]43)n2)c1` [Example 477], the EC90 was below 0.5 µM. As to `Cc1nc(NCc2cc3ccccc3s2)nc(N[C@@H]2C[C@H](CO)[C@@H](O)[C@H]2O)c1-c1nc2ccccc2s1` [Example 478], the EC90 was below 0.5 µM. As for `Cc1ccsc1CNc1nc(C)c(-c2nc3ccccc3s2)c(N[C@@H]2C[C@H](CO)[C@@H](O)[C@H]2O)n1` [Example 479], the EC90 was below 0.5 µM. Turning to `Cc1csc(CNc2nc(C)c(-c3nc4ccccc4s3)c(N[C@@H]3C[C@H](CO)[C@@H](O)[C@H]3O)n2)c1` [Example 480], the EC90 is below 0.5 µM. On to `Cc1nc(NCc2cccc[n+]2[O-])nc(N[C@@H]2C[C@H](CO)[C@H]3OC(C)(C)O[C@H]32)c1-c1nc2ccccc2s1` [Example 481], for which the 90% effect concentration (EC90) was above 5 µM. As for `Cc1nc(NCc2cccc[n+]2[O-])nc(N[C@@H]2C[C@H](CO)[C@@H](O)[C@H]2O)c1-c1nc2ccccc2s1` [Example 482], the EC90 was 0.5 to 5 µM. Regarding `COc1cccc(CNc2nc(C)c(-c3nc4ccccc4s3)c(N[C@@H]3C[C@H](CO)[C@H]4OC(C)(C)O[C@H]43)n2)c1` [Example 483], the concentration for an effect of 90% (EC90) was 0.5 to 5 µM. On to `Cc1cccc(CNc2nc(C)c(-c3nc4ccccc4s3)c(N[C@@H]3C[C@H](CO)[C@H]4OC(C)(C)O[C@H]43)n2)c1` [Example 485], for which the EC90 was 0.5 to 5 µM. Regarding `Cc1cccc(CNc2nc(C)c(-c3nc4ccccc4s3)c(N[C@@H]3C[C@H](CO)[C@@H](O)[C@H]3O)n2)c1` [Example 486], the EC90 was below 0.5 µM. Regarding `Cc1ccccc1CNc1nc(C)c(-c2nc3ccccc3s2)c(N[C@@H]2C[C@H](CO)[C@H]3OC(C)(C)O[C@H]32)n1` [Example 487], the EC90 is above 5 µM. As for `Cc1ccccc1CNc1nc(C)c(-c2nc3ccccc3s2)c(N[C@@H]2C[C@H](CO)[C@@H](O)[C@H]2O)n1` [Example 488], the figure is below 0.5 µM. For `Cc1ccc(CNc2nc(C)c(-c3nc4ccccc4s3)c(N[C@@H]3C[C@H](CO)[C@H]4OC(C)(C)O[C@H]43)n2)cc1` [Example 489], the EC90 was 0.5 to 5 µM. As for `Cc1ccc(CNc2nc(C)c(-c3nc4ccccc4s3)c(N[C@@H]3C[C@H](CO)[C@@H](O)[C@H]3O)n2)cc1` [Example 490], the EC90 was below 0.5 µM. For `Cc1cc(CNc2nc(C)c(-c3nc4ccccc4s3)c(N[C@@H]3C[C@H](CO)[C@H]4OC(C)(C)O[C@H]43)n2)no1` [Example 491], the concentration for an effect of 90% (EC90) is 0.5 to 5 µM.

In the case of `Cc1cc(CNc2nc(C)c(-c3nc4ccccc4s3)c(N[C@@H]3C[C@H](CO)[C@@H](O)[C@H]3O)n2)no1` [Example 492], the EC90 was below 0.5 µM. `Cc1cc(CNc2nc(C)c(-c3nc4ccccc4s3)c(N[C@@H]3C[C@H](CO)[C@@H](O)[C@H]3O)n2)on1` [Example 493]: the EC90 is below 0.5 µM. As for `Cc1nc(CNc2nc(C)c(-c3nc4ccccc4s3)c(N[C@@H]3C[C@H](CO)[C@H]4OC(C)(C)O[C@H]43)n2)cs1` [Example 494], the figure is above 5 µM. As for `Cc1nc(CNc2nc(C)c(-c3nc4ccccc4s3)c(N[C@@H]3C[C@H](CO)[C@@H](O)[C@H]3O)n2)cs1` [Example 495], the EC90 is below 0.5 µM. Consider `Cc1ccc(CNc2nc(C)c(-c3nc4ccccc4s3)c(N[C@@H]3C[C@H](CO)[C@H]4OC(C)(C)O[C@H]43)n2)s1` [Example 496], for which the EC90 is below 0.5 µM.

Take `Cc1ccc(CNc2nc(C)c(-c3nc4ccccc4s3)c(N[C@@H]3C[C@H](CO)[C@@H](O)[C@H]3O)n2)s1` [Example 497]: the EC90 is below 0.5 µM. `Cc1cccnc1CNc1nc(C)c(-c2nc3ccccc3s2)c(N[C@@H]2C[C@H](CO)[C@H]3OC(C)(C)O[C@H]32)n1` [Example 498]: the EC90 is above 5 µM. As to `Cc1cccnc1CNc1nc(C)c(-c2nc3ccccc3s2)c(N[C@@H]2C[C@H](CO)[C@@H](O)[C@H]2O)n1` [Example 499], the EC90 is below 0.5 µM.

Regarding `COc1cc(CNc2nc(C)c(-c3nc4ccccc4s3)c(N[C@@H]3C[C@H](CO)[C@H]4OC(C)(C)O[C@H]43)n2)cc(OC)c1` [Example 500], the EC90 was below 0.5 µM.

With `CCc1cc2cc(-c3c(Cl)nc(NCCOC)nc3N[C@@H]3C[C@H](CO)[C@@H](O)[C@H]3O)oc2cn1` [Example 501], the EC90 is below 0.5 µM. For the compound `CCc1cc2cc(-c3c(Cl)nc(NC(C)C)nc3N[C@@H]3C[C@H](CO)[C@@H](O)[C@H]3O)oc2cn1` [Example 502], the EC90 was below 0.5 µM.
